According to ChEMBL document CHEMBL5678805, “Intermittent administration of MEK inhibitor GDC-0973 plus PI3K inhibitor GDC-0941 triggers robust apoptosis and tumor growth inhibition” (Cancer Res, 2012):

Molecular target: Macrophage colony-stimulating factor 1 receptor (Homo sapiens, UniProt P07333)
Assay: Inhibition of Fms (unknown origin)

Macrophage colony-stimulating factor 1 receptor, sequence (P07333 whole entry): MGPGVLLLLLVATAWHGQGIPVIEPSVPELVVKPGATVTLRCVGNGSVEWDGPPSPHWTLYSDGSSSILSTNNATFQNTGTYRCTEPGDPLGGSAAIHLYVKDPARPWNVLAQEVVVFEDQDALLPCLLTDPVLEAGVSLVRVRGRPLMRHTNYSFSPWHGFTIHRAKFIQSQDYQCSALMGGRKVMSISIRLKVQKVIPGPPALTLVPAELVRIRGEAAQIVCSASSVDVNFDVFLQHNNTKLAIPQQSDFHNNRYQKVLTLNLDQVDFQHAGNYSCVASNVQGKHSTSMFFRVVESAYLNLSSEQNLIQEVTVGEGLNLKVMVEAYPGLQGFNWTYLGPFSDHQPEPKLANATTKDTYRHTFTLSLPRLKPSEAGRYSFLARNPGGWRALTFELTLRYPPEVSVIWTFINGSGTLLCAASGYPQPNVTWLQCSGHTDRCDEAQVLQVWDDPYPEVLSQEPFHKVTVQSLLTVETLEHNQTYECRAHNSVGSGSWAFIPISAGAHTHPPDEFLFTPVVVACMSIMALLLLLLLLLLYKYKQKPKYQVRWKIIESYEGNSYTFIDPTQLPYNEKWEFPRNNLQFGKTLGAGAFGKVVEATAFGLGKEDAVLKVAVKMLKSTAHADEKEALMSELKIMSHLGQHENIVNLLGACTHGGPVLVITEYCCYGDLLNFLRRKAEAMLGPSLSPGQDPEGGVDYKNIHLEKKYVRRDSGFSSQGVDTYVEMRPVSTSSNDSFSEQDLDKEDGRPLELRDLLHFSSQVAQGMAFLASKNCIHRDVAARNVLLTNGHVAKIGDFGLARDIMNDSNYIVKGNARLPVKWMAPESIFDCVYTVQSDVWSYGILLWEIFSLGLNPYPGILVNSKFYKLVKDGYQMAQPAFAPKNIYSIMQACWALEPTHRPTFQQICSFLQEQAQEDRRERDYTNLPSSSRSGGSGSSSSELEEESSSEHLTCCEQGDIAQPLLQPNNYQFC

`O=C(c1ccc(F)c(F)c1Nc1ccc(I)cc1F)N1CC(O)([C@@H]2CCCCN2)C1` [COBIMETINIB] was tested, and the IC50 was over 10 µM.
